According to publication PMC12775434, “Ultra-large virtual screening unveils potent agonists of the neuromodulatory orphan receptor GPR139” (Nature Communications, 2025):
“And” between values parts separate entries of the source, which are not always exact repeats. Equal entries are not always repeated. Where two headings read alike, the source gives them in different places.

Biological target: T1, GPR139 (Homo sapiens, UniProt Q6DWJ6)
T1 sequence (Q6DWJ6 1-353): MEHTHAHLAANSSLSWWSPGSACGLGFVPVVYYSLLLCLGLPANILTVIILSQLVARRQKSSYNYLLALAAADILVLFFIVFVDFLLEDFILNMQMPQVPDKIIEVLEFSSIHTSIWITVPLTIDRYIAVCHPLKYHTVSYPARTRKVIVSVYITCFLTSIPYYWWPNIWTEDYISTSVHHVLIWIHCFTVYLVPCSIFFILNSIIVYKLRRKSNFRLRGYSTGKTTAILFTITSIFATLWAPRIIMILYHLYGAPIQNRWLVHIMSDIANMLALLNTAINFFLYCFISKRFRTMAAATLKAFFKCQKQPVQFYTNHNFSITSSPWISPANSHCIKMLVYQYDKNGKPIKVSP
Test: Ca2+ mobilization assay, agonist mode, stable GPR139-CHOk1 cell line
Assay type: cell-based
Details: for Emax: normalized to Lundbeck Cmp 1a, read-out: Emax (%) Ca2+
Summary of the method: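 Agonist activity of compounds is assessed in stably transfected CHO-K1 cells using the calcium dye Fluo-4 at 37 °C in HEPES-buffered HBSS (pH 7.4). Efficacy is expressed relative to the reference agonist Lundbeck Cmp 1a, set as 100%.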

[1] = 0.1 µM, individual replicates (Supplementary Figure 3)
[2] = 1 µM, individual replicates (Supplementary Figure 3)
[3] = 10 µM, individual replicates (Supplementary Figure 3)
[4] = Agonist mode, individual replicates (Supplementary Figure 1)
[5] = GPR139-CHOk1, read-out: EC50, Ca2+ mobilization
[6] = Supplementary Table 2, mean ± SEM
[7] = log [Compound] M -4.5, replicate experiments
[8] = log [Compound] M -5.0, replicate experiments
[9] = log [Compound] M -5.5, replicate experiments
[10] = log [Compound] M -6.0, replicate experiments
[11] = log [Compound] M -6.5, replicate experiments
[12] = log [Compound] M -7.0, replicate experiments
[13] = log [Compound] M -7.5, replicate experiments
[14] = log [Compound] M -8.0, replicate experiments
[15] = log [Compound] M -8.5, replicate experiments
[16] = log [Compound] M -9.0, replicate experiments
[17] = primary screen, 10 µM compound, agonist mode, three columns = independent experiments
[18] = Supplementary Table 2, mean ± SEM, read-out: pEC50 Ca2+ (converted)

Ca2+ signal (% of Cmp 1a) [1] | Ca2+ signal (% of Cmp 1a) [2] | Ca2+ signal (% of Cmp 1a) [3] | EC50 [5] [µM] | Emax [6] [%] | Compound | Ca2+ signal (% of Cmp 1a) [4] | Ca2+ signal (% of Cmp 1a) [7] | Ca2+ signal (% of Cmp 1a) [8] | Ca2+ signal (% of Cmp 1a) [9] | Ca2+ signal (% of Cmp 1a) [10] | Ca2+ signal (% of Cmp 1a) [11] | Ca2+ signal (% of Cmp 1a) [12] | Ca2+ signal (% of Cmp 1a) [13] | Ca2+ signal (% of Cmp 1a) [14] | Ca2+ signal (% of Cmp 1a) [15] | Ca2+ signal (% of Cmp 1a) [16] | Ca2+ signal (% of Cmp 1a) [17] | EC50 [18] [µM]
18.1 % of Cmp 1a and 15.9 % of Cmp 1a | 65.0 % of Cmp 1a and 52.8 % of Cmp 1a | 86.8 % of Cmp 1a and 54.5 % of Cmp 1a | 0.32 | 83 ± 6 | COC(=O)c1cc(NC(=O)NC(C)c2cccc(F)c2F)ccc1C (centres unmarked) [Compound 2, COC(=O)C=1C=C(NC(=O)NC(C)C=2C=CC=C(F)C2F)C=CC1C] | 81 % of Cmp 1a and 65 % of Cmp 1a and 84 % of Cmp 1a | 74 % of Cmp 1a and 103 % of Cmp 1a and 90 % of Cmp 1a | 60 % of Cmp 1a and 92 % of Cmp 1a and 78 % of Cmp 1a | 65 % of Cmp 1a and 88 % of Cmp 1a and 71 % of Cmp 1a | 66 % of Cmp 1a and 74 % of Cmp 1a and 68 % of Cmp 1a | 25 % of Cmp 1a and 58 % of Cmp 1a and 38 % of Cmp 1a | 16 % of Cmp 1a and 20 % of Cmp 1a and 28 % of Cmp 1a | -9 % of Cmp 1a and -8 % of Cmp 1a and 6 % of Cmp 1a | -12 % of Cmp 1a and -7 % of Cmp 1a and 2.84 % of Cmp 1a | -1.88 % of Cmp 1a and 9 % of Cmp 1a and 21 % of Cmp 1a | -14 % of Cmp 1a and 6 % of Cmp 1a and 7 % of Cmp 1a | 81 % of Cmp 1a and 65 % of Cmp 1a and 84 % of Cmp 1a | –
5.3 % of Cmp 1a and 10.2 % of Cmp 1a | 18.7 % of Cmp 1a and 1.8 % of Cmp 1a | 46.3 % of Cmp 1a | – | 70 ± 3 | Cc1noc(C(C)NC(=O)Nc2cccc(-c3ccccc3)c2)n1 (centres unmarked) [Compound 3, CC(NC(=O)NC=1C=CC=C(C1)C=2C=CC=CC2)C3=NC(C)=NO3] | 55 % of Cmp 1a and 56 % of Cmp 1a and 62 % of Cmp 1a | 57 % of Cmp 1a and 72 % of Cmp 1a and 70 % of Cmp 1a | 55 % of Cmp 1a and 59 % of Cmp 1a and 65 % of Cmp 1a | 25 % of Cmp 1a and 54 % of Cmp 1a and 37 % of Cmp 1a | 11 % of Cmp 1a and 34 % of Cmp 1a and 21 % of Cmp 1a | -1.52 % of Cmp 1a and 4.42 % of Cmp 1a and 16 % of Cmp 1a | -7 % of Cmp 1a and -0.413 % of Cmp 1a and 6 % of Cmp 1a | -4.33 % of Cmp 1a and 4 % of Cmp 1a and 8 % of Cmp 1a | -1.83 % of Cmp 1a and -3.24 % of Cmp 1a and 5 % of Cmp 1a | -10 % of Cmp 1a and -2 % of Cmp 1a and 4.52 % of Cmp 1a | 0.621 % of Cmp 1a and -0.857 % of Cmp 1a and 2.53 % of Cmp 1a | 55 % of Cmp 1a and 56 % of Cmp 1a and 62 % of Cmp 1a | 2.51
0.9 % of Cmp 1a and -12.1 % of Cmp 1a | 17.5 % of Cmp 1a and 11.9 % of Cmp 1a | 52.6 % of Cmp 1a and 31.9 % of Cmp 1a | 3.6 | 88 ± 4 | CC(NC(=O)Cn1cncc(-c2ccccc2)c1=O)c1ccccc1 (centres unmarked) [Compound 5, C[C@@H](NC(=O)CN1C=NC=C(C=2C=CC=CC2)C1=O)C=3C=CC=CC3] | 71 % of Cmp 1a and 78 % of Cmp 1a and 63 % of Cmp 1a | 91 % of Cmp 1a and 74 % of Cmp 1a and 86 % of Cmp 1a | 75 % of Cmp 1a and 51 % of Cmp 1a and 76 % of Cmp 1a | 60 % of Cmp 1a and 41 % of Cmp 1a and 50 % of Cmp 1a | 23 % of Cmp 1a (2×) and 24 % of Cmp 1a | 16 % of Cmp 1a (2×) and 0.619 % of Cmp 1a | 11 % of Cmp 1a | 9 % of Cmp 1a and 2.21 % of Cmp 1a and 7 % of Cmp 1a | 3.64 % of Cmp 1a and 0.518 % of Cmp 1a and 5.27 % of Cmp 1a | 13 % of Cmp 1a and 0.00547 % of Cmp 1a and 8 % of Cmp 1a | 7 % of Cmp 1a and -1.29 % of Cmp 1a and 10 % of Cmp 1a | 71 % of Cmp 1a and 78 % of Cmp 1a and 63 % of Cmp 1a | –

Compound | Ca2+ signal (% of Cmp 1a) [1] | Ca2+ signal (% of Cmp 1a) [2] | Ca2+ signal (% of Cmp 1a) [3] | EC50 [5] [µM] | Emax [6] [%] | Ca2+ signal (% of Cmp 1a) [4] | Ca2+ signal (% of Cmp 1a) [7] | Ca2+ signal (% of Cmp 1a) [8] | Ca2+ signal (% of Cmp 1a) [9] | Ca2+ signal (% of Cmp 1a) [10] | Ca2+ signal (% of Cmp 1a) [11] | Ca2+ signal (% of Cmp 1a) [12] | Ca2+ signal (% of Cmp 1a) [13] | Ca2+ signal (% of Cmp 1a) [14] | Ca2+ signal (% of Cmp 1a) [15] | Ca2+ signal (% of Cmp 1a) [16] | Ca2+ signal (% of Cmp 1a) [17] | EC50 [18] [µM]
Cc1noc(CNC(=O)C2(C)CCCCN2C(=O)c2ccccc2)n1 (centres unmarked) [Compound 4, CC1=NOC(CNC(=O)C2(C)CCCCN2C(=O)C=3C=CC=CC3)=N1] | -4.2 % of Cmp 1a and 0.43 % of Cmp 1a | 9.8 % of Cmp 1a and 4.1 % of Cmp 1a | 51.3 % of Cmp 1a and 47.8 % of Cmp 1a | – | 100 ± 7 | 75 % of Cmp 1a and 80 % of Cmp 1a and 81 % of Cmp 1a | 98 % of Cmp 1a and 82 % of Cmp 1a | 75 % of Cmp 1a and 63 % of Cmp 1a | 44 % of Cmp 1a and 46 % of Cmp 1a | 13 % of Cmp 1a and 24 % of Cmp 1a | 4.41 % of Cmp 1a and 3 % of Cmp 1a | 3.62 % of Cmp 1a and -1.16 % of Cmp 1a | -4.26 % of Cmp 1a and -2.55 % of Cmp 1a | -0.711 % of Cmp 1a and -3.49 % of Cmp 1a | 5.56 % of Cmp 1a and 4.65 % of Cmp 1a | -1.86 % of Cmp 1a and -5 % of Cmp 1a | 75 % of Cmp 1a and 80 % of Cmp 1a and 81 % of Cmp 1a | 3.98
